Key:
Test in all cases: Ambit KinomeScan screening
Assay type in all cases: binding
Conditions in all cases: CAL-130 10 μM
[1] = biological target: T1, SBK1 (Homo sapiens, UniProt Q52WX2)
T1 construct: tag, kind not specified; purchased Ambit (KinomeScan screening service)
Method in brief: (§1)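 Displacement of tagged kinase from bait ligand on solid support was assessed using 10 μM CAL-130. Each value is the fraction of control binding retained, expressed in percent; a cutoff of >35% defines no hit.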

[2] = biological target: T2, RIOK1 (Homo sapiens, UniProt Q9BRS2)
T2 construct: unspecified tag (tagged kinase); purchased Ambit (KinomeScan screening)
Method in brief: as §1

[3] = biological target: T3, HPK1 (Homo sapiens, UniProt Q92918)
T3 construct: Ambit (KinomeScan screening)
Method in brief: as §1

[4] = biological target: T4, PIK4CB (Homo sapiens, UniProt Q9UBF8)
T4 construct: unspecified tag; purchased Ambit (KinomeScan screening panel)
Method in brief: as §1

[5] = biological target: T5, EGFR(S752-I759DEL) (Homo sapiens, UniProt P00533, DEL752-759)
T5 construct: unspecified tag; purchased Ambit (KinomeScan screening service)
Method in brief: as §1

[6] = biological target: T6, PRKD1 (Homo sapiens, UniProt Q15139)
T6 construct: purchased Ambit (KinomeScan screening service)
Method in brief: as §1

[7] = biological target: T7, YANK2 (Homo sapiens, UniProt Q9NY57)
T7 construct: purchased Ambit (KinomeScan screening service)
Method in brief: as §1

[8] = biological target: T8, STK35 (Homo sapiens, UniProt Q8TDR2)
T8 construct: tag (kind not specified); purchased Ambit (KinomeScan screening service)
Method in brief: as §1

[9] = biological target: T9, PRKCD (Homo sapiens, UniProt Q05655)
T9 construct: purchased Ambit (KinomeScan screening service)
Method in brief: as §1

[10] = biological target: T10, RIOK3 (Homo sapiens, UniProt O14730)
T10 construct: unspecified tag (tagged kinase); purchased Ambit (KinomeScan screening)
Method in brief: as §1

[11] = biological target: T11, LOK (Homo sapiens, UniProt O94804)
T11 construct: unspecified tag ('tagged kinases'); purchased Ambit (KinomeScan screening service)
T11 sequence (O94804 whole entry): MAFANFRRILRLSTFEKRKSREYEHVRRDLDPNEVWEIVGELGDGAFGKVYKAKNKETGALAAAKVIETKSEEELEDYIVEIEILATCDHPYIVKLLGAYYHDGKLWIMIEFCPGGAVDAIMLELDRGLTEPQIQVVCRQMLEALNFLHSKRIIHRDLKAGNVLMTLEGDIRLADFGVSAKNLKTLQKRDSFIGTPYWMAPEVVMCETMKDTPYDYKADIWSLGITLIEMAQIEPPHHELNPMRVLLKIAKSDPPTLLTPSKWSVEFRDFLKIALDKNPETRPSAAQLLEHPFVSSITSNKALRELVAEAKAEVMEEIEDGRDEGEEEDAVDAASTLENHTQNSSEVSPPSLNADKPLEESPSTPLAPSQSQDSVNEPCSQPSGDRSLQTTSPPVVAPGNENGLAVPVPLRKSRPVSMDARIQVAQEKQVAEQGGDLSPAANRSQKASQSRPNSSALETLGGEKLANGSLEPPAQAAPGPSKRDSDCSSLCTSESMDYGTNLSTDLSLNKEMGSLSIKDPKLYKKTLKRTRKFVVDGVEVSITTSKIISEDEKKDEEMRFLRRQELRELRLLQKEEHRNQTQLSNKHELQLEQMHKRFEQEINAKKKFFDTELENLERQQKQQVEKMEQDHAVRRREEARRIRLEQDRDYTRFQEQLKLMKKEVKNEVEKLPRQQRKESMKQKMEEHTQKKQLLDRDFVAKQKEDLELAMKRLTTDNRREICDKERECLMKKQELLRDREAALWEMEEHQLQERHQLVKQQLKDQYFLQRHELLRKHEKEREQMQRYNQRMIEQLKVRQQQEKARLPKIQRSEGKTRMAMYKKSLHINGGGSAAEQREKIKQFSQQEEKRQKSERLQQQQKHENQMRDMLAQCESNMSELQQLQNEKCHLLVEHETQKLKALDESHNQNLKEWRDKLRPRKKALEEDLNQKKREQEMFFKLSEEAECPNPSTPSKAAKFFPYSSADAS
Method in brief: as §1

[12] = biological target: T12, NDR1 (Homo sapiens, UniProt Q15208)
T12 construct: unspecified tag; purchased Ambit (KinomeScan screening panel)
T12 sequence (Q15208 whole entry): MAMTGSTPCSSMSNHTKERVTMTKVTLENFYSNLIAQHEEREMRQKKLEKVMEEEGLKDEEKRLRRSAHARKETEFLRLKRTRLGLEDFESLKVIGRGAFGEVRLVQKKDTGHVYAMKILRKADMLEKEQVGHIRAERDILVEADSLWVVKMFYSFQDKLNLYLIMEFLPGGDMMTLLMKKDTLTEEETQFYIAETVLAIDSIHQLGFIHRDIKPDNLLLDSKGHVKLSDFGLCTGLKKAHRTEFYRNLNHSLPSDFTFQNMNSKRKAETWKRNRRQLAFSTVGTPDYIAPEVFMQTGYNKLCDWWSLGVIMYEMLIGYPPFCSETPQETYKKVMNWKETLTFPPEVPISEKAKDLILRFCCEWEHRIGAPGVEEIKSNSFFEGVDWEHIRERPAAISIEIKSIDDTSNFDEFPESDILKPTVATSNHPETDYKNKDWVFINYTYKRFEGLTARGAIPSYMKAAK
Method in brief: as §1

[13] = biological target: T13, ABL1(H396P) (Homo sapiens, UniProt P00519, H396P)
T13 construct: unspecified tag ("tagged kinases"); purchased Ambit (KinomeScan screening)
Method in brief: as §1

[14] = biological target: T14, p38-δ (Homo sapiens, UniProt O15264)
T14 construct: purchased Ambit (KinomeScan screening service)
T14 sequence (O15264 whole entry): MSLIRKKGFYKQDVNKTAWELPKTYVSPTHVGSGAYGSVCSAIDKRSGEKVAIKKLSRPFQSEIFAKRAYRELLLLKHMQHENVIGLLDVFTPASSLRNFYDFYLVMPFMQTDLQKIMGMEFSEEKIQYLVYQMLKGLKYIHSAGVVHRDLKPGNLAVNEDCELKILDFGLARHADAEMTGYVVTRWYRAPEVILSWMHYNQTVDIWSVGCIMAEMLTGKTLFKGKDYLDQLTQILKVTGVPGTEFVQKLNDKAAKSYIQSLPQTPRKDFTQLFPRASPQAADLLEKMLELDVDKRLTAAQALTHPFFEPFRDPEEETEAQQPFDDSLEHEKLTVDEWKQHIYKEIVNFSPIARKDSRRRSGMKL
Method in brief: as §1

[15] = biological target: T15, NEK2 (Homo sapiens, UniProt P51955)
T15 construct: unspecified tag; purchased Ambit (KinomeScan screening panel)
Method in brief: as §1

[16] = biological target: T16, TTK (Homo sapiens, UniProt P33981)
T16 construct: tag, kind not specified; purchased Ambit (KinomeScan screening service)
Method in brief: as §1

[17] = biological target: T17, JNK3 (Homo sapiens, UniProt P53779)
T17 construct: purchased Ambit (KinomeScan screening)
Method in brief: as §1

[18] = biological target: T18, MEK2 (Homo sapiens, UniProt P36507)
T18 construct: purchased Ambit (KinomeScan screening)
Method in brief: as §1

[19] = biological target: T19, RPS6KA6 (Homo sapiens, UniProt Q9UK32)
T19 construct: tag, kind not specified; purchased Ambit (KinomeScan screening service)
Method in brief: as §1

[20] = biological target: T20, SgK085 (Homo sapiens, UniProt Q86YV6)
T20 construct: tag, kind not specified; purchased Ambit (KinomeScan screening service)
T20 sequence (Q86YV6 whole entry): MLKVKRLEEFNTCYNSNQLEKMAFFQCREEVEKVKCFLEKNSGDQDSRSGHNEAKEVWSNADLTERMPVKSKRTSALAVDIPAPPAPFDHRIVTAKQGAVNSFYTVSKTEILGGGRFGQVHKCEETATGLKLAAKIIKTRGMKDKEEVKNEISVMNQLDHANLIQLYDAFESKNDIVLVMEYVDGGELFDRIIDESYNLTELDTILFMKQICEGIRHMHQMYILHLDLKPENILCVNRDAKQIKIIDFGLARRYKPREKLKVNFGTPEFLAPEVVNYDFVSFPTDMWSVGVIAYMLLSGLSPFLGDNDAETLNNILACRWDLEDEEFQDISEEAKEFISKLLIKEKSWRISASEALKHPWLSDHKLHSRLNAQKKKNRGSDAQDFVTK
Method in brief: as §1

[21] = biological target: T21, CSNK2A1 (Homo sapiens, UniProt P68400)
T21 construct: purchased Ambit (KinomeScan screening service)
Method in brief: as §1

[22] = biological target: T22, IKK-β (Homo sapiens, UniProt O14920)
T22 construct: Ambit (KinomeScan screening)
T22 sequence (O14920 whole entry): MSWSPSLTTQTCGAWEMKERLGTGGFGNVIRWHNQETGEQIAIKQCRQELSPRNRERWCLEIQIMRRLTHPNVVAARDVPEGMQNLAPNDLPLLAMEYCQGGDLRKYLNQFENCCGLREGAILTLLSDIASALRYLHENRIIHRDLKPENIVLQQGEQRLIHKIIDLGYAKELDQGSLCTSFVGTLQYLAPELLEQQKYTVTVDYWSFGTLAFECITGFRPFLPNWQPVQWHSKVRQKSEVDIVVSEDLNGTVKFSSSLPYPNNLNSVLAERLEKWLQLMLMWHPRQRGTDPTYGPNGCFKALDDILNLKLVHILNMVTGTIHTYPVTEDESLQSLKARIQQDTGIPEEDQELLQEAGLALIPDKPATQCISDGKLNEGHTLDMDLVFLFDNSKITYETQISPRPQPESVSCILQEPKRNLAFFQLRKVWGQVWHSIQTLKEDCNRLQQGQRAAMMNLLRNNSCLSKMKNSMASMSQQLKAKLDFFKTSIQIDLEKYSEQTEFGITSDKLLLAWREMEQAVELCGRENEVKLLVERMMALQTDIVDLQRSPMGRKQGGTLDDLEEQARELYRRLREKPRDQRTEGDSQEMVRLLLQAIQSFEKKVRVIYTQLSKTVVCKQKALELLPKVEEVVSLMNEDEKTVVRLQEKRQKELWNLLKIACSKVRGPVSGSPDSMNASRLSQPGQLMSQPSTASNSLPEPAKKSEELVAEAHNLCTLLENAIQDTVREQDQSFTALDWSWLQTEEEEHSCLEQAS
Method in brief: as §1

[23] = biological target: T23, CDK8 (Homo sapiens, UniProt P49336)
T23 construct: purchased Ambit (KinomeScan screening service)
T23 sequence (P49336 whole entry): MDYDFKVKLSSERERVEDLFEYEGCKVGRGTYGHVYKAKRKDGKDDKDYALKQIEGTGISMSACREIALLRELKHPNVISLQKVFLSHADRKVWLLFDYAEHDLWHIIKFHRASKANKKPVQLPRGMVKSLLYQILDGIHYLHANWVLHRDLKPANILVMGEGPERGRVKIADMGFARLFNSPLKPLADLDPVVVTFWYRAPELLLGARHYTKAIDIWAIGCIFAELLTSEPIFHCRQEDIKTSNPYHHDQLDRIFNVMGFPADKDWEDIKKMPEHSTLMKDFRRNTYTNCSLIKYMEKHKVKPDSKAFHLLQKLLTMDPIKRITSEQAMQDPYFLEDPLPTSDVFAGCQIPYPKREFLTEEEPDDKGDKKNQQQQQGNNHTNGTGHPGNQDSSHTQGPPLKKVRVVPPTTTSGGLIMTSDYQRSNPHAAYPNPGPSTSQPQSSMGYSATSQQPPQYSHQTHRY
Method in brief: as §1

[24] = biological target: T24, AMPK-α2 (Homo sapiens, UniProt P54646)
T24 construct: purchased Ambit (KinomeScan screening)
Method in brief: as §1

[25] = biological target: T25, GSK3A (Homo sapiens, UniProt P49840)
T25 construct: unspecified tag ('tagged kinases'); purchased Ambit (KinomeScan screening service)
Method in brief: as §1

[26] = biological target: T26, CLK3 (Homo sapiens, UniProt P49761)
T26 construct: purchased Ambit (KinomeScan screening service)
Method in brief: as §1

[27] = biological target: T27, DAPK2 (Homo sapiens, UniProt Q9UIK4)
T27 construct: purchased Ambit (KinomeScan screening service)
T27 sequence (Q9UIK4 whole entry): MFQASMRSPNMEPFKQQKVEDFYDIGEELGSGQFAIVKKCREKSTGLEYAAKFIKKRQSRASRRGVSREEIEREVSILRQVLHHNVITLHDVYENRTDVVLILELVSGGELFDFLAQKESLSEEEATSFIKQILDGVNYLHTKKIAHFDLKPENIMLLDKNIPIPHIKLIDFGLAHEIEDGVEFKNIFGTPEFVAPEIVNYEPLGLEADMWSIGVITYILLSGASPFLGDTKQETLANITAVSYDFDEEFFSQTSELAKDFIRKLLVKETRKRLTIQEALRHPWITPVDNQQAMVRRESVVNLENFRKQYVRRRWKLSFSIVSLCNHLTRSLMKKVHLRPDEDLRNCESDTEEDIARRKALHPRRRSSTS
Method in brief: as §1

[28] = biological target: T28, FYN (Homo sapiens, UniProt P06241)
T28 construct: unspecified tag ('tagged kinases'); purchased Ambit (KinomeScan screening service)
Method in brief: as §1

[29] = biological target: T29, BMX (Homo sapiens, UniProt P51813)
T29 construct: unspecified tag ("tagged kinases"); purchased Ambit (KinomeScan screening)
T29 sequence (P51813 whole entry): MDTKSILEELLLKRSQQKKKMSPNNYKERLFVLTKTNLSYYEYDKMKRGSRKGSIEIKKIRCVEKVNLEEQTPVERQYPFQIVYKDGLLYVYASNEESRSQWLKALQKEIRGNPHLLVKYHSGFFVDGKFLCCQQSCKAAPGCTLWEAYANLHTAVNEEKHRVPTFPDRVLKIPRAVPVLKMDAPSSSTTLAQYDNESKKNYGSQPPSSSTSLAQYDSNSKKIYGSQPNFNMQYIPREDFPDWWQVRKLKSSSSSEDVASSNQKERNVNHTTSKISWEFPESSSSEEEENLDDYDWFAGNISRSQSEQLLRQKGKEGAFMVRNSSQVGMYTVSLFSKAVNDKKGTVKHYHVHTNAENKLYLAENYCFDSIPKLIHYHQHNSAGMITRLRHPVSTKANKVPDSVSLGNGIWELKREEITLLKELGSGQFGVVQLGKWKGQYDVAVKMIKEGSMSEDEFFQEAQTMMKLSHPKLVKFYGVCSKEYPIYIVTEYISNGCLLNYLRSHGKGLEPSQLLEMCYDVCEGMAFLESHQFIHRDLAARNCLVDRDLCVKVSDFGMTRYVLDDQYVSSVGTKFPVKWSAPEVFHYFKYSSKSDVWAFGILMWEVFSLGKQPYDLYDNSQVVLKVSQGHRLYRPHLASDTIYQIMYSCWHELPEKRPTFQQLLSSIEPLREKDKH
Method in brief: as §1

[30] = biological target: T30, ERK4 (Homo sapiens, UniProt P31152)
T30 construct: unspecified tag ("tagged kinases"); purchased Ambit (KinomeScan screening service)
Method in brief: as §1

[31] = biological target: T31, PFTAIRE2 (Homo sapiens, UniProt Q96Q40)
T31 construct: unspecified tag ('tagged kinases'); purchased Ambit (KinomeScan screening)
Method in brief: as §1

[32] = biological target: T32, DCAMKL3 (Homo sapiens, UniProt Q9C098)
T32 construct: unspecified tag ("tagged kinases"); purchased Ambit (KinomeScan screening service)
Method in brief: as §1

[33] = biological target: T33, CDK11 (Homo sapiens, UniProt Q9BWU1)
T33 construct: purchased Ambit (KinomeScan screening)
Method in brief: as §1

[34] = biological target: T34, TAK1 (Homo sapiens, UniProt O43318)
T34 construct: tag (kind not specified); purchased Ambit (KinomeScan screening service)
Method in brief: as §1

[35] = biological target: T35, ACVRL1 (Homo sapiens, UniProt P37023)
T35 construct: purchased Ambit (KinomeScan screening)
Method in brief: as §1

[36] = biological target: T36, WEE2 (Homo sapiens, UniProt P0C1S8)
T36 construct: purchased Ambit (KinomeScan screening service)
T36 sequence (P0C1S8 whole entry): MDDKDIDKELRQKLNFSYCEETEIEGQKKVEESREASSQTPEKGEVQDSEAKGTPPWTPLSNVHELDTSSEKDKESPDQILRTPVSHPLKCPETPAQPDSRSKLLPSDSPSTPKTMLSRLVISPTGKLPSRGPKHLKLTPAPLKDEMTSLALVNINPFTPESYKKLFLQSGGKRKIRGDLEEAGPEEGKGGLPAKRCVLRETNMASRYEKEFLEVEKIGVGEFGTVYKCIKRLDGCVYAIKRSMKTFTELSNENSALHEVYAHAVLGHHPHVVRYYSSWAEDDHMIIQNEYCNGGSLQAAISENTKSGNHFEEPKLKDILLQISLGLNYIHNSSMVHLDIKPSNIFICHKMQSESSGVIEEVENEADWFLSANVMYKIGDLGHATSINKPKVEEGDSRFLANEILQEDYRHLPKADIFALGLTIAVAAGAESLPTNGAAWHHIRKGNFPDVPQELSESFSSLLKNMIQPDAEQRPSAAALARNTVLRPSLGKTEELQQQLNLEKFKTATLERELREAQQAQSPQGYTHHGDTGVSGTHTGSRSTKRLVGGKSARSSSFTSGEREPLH
Method in brief: as §1

Cc1ccccc1-n1c(C(C)Nc2nc(N)nc3nc[nH]c23)nc2cccc(C)c2c1=O (stereo not drawn) [CAL-130]
Percent of Control Binding [1]: 100%
Percent of Control Binding [2]: 100%
Percent of Control Binding [3]: 100%
Percent of Control Binding [4]: 100%
Percent of Control Binding [5]: 100%
Percent of Control Binding [6]: 100%
Percent of Control Binding [7]: 100%
Percent of Control Binding [8]: 100%
Percent of Control Binding [9]: 100%
Percent of Control Binding [10]: 100%
Percent of Control Binding [11]: 100%
Percent of Control Binding [12]: 100%
Percent of Control Binding [13]: 100%
Percent of Control Binding [14]: 100%
Percent of Control Binding [15]: 100%
Percent of Control Binding [16]: 11%
Percent of Control Binding [17]: 100%
Percent of Control Binding [18]: 100%
Percent of Control Binding [19]: 100%
Percent of Control Binding [20]: 100%
Percent of Control Binding [21]: 100%
Percent of Control Binding [22]: 100%
Percent of Control Binding [23]: 100%
Percent of Control Binding [24]: 100%
Percent of Control Binding [25]: 100%
Percent of Control Binding [26]: 100%
Percent of Control Binding [27]: 100%
Percent of Control Binding [28]: 100%
Percent of Control Binding [29]: 100%
Percent of Control Binding [30]: 100%
Percent of Control Binding [31]: 100%
Percent of Control Binding [32]: 100%
Percent of Control Binding [33]: 100%
Percent of Control Binding [34]: 100%
Percent of Control Binding [35]: 100%
Percent of Control Binding [36]: 100%

Reference: patent publication US11969428B2, “Methods and pharmaceutical compositions for treating lymphoid malignancy” (priority 2011, dated 2024)
